The results in this text go back to BindingDB's records for doi:10.1021/jm00100a021 (University of Illinois, 1992).

Test [1] has as its target Urokinase-type plasminogen activator (Homo sapiens, UniProt P00749). Nature of the test: ChEBML_213149. An excerpt: […] rate constant against Urokinase-type plasminogen activator
The target in another test is T1, Serine protease 1 (Bos taurus, UniProt P00760).
T1 sequence (P00760 whole entry): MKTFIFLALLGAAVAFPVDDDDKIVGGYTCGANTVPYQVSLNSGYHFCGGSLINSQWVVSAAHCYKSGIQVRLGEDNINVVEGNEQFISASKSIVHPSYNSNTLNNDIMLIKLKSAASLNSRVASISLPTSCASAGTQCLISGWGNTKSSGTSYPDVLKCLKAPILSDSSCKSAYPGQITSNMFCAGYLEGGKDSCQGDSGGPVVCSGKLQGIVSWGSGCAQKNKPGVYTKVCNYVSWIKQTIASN
Nature of the test: ChEBML_212371. An excerpt:
[…] rate constant against trypsin

On to `C=C1CC(c2ccc(N=C(N)N)cc2)CC(=O)O1` (stereo not drawn), for which the off-rate (koff) was determined as 0.00015 s⁻¹ in test [1] and 3.3e-05 s⁻¹ on Serine protease 1.

At Serine protease 1, `N=C(N)Nc1ccc(C2CC(=O)O/C(=C/I)C2)cc1` (stereo not drawn) gave a koff of 0.000333 s⁻¹.

A word on the koff: it is the first-order rate constant of dissociation.
